In patent US20230219964A1, “ANTIBACTERIAL AND ANTIFUNGAL PLEUROMUTILIN CONJUGATES” (SYDDANSK UNIVERSITET, priority 2020, published 2023):
In brackets after ≈: the same amount, converted by molar mass. Like-named read-outs stand apart in the source and are kept apart here.

Legend:
[1] = test system: vancomycin-resistant enterococci (VRE) cells, VRE 5; assay: MIC in vitro broth micro-dilution assay, VRE 5; type: cell-based; conditions: Enterococcus, VRE; lowest concentration to fully inhibit visible growth (OD600); clinical isolate, ampicillin, ciprofloxacin, vancomycin and linezolid resistant; read-out: in vitro susceptibility (MIC) VRE 5
Protocol: (§1) Bacterial susceptibility was established through an in vitro cell-based broth micro-dilution assay. To produce accurate and reproducible MIC-values, a procedure was used which follows the guidelines set by the Clinical and Laboratory Standards Institute (CLSI, USA) and the European Committee on Antimicrobial Susceptibility Testing (EUCAST). The micro-dilutions were carried out in 96-well plates, according to FIG. 3, wherein column 1 is a growth control, Columns 2 to 11 are dilutions of 1×, 2×, 4×, 8×, 16×, 32×, 64×, 128×, 256×, 512× respectively, and column 12 is a sterile control. To further increase the reliability of each susceptibility test, inoculation involved the use of three independent overnight cultures (ON1-ON3) thus giving rise to […]. Furthermore, each ON was added to two individual dilution rows, giving rise to […]. The standard inoculum was set to ˜5-10^5 colony-forming units (CFU) mL^−1. This was verified by dilution onto agar plates after each overall run.
(§2) The applied procedure was:
(§3) 1.1 MH or BHI agar plates for dilutions were created, 1 plate per overnight (ON) culture and MH or BHI media. 1.2 Day 1: Preparation of ON cultures of the bacterial strain in question, by inoculation of a single colony in 5 mL of MH or BHI media. Then incubation at 37° C. with aeration for approximately 16-20 hours. Biological triplicates were created by inoculation from 3 different colonies per strain.
(§4) 1.3 Day 2: A 96-well plate with the antibiotic/compound in question was prepared as according to FIG. 3: 1.4 In a 15 mL falcon tube, an appropriate volume of a 1000 μg/mL antibiotic/compound DMSO stock was diluted with MH or BHI media such that a 2× concentration and total volume of 10 mL was achieved. 1.5 A multi-channel pipette was used in the following. 1.6 Column 1 was used for growth control, so no antibiotic/compound was added to that column. 1.7 200 μl of 2× concentration of the antibiotic/compound was added to column 2. Technical duplicates were always created, thus 2 columns per ON culture. 1.8 100 μl of MH or BHI media was added to columns 1, 3-11 and 200 μl of MH or BHI media to column 12. 1.9 100 μl was transferred from column 2 to column 3. The same pipetting tips were used to transfer 100 μL from column 3 to 4. This scheme was repeated until column 11 where 100 μl was discarded after re-suspending. Column 12 was used as a sterile control, so no antibiotic/compound was added to that column. Each transferring involved pipetting up and down 5 to 7 times. 1.10 The plates were fully dried for CFU in the 42° C. incubator, 4× dilutions in triplicates per one plate.
(§5) 1.11 The optical density of bacterial cells in the ON culture was measured at wavelength 600 nm (OD600). Then the ON culture was diluted to an OD600=0.1. 1.12 Then the OD600 was re-measured to make certain that it was between 0.08 and 0.13. 1.13 The prepared 0.1 culture of 1.12 was diluted 100× more by transferring of 100 μl thereof, to 10 ml of MH or BHI media (enough for a 96-well plate). 1.14 Then 200 μl of the 100× dilution in 1.13 was transferred to Eppendorf tubes and kept cold until use. 1.15 100 μl of culture with an OD600 on approximately 0.001 was dispensed to each well of columns 1 to 11. 1.16 The plate was closed. Covered with aluminium foil and small holes were created with a 100-200 μL tip.
(§6) 1.17 The 96-well plate was then incubated at 37° C. with agitation and left for 16-hours.
(§7) 1.18 Verification of standard inoculum: The 100× diluted culture of 1.13 was used to create 10^−1 to 10^−4 dilutions in PBS/0.9% saline (100 μl sample to 900 μl PBS, mix well and continue until 10^−4). 1.19 10 μl of the 10^−2, 10^−3 and 10^−4 dilutions in 1.18 were spotted onto very dry MH or BHI plates in triplicates. 1.20 Then incubated overnight at 37° C. 1.21 The plates were examined manually or by using the plate reader.

[2] = test system: Multi-resistant Staphylococcus aureus (MRSA) USA300 cells; assay: MIC in vitro broth micro-dilution assay, MRSA USA300; type: cell-based; conditions: for MIC: Staphylococcus aureus
Protocol: as §1, §2, §3, §4, §5, §6, §7

[3] = test system: S. pneumonia cells; assay: MIC in vitro broth micro-dilution assay, S. pneumonia; type: cell-based, Streptococcus pneumonia; conditions: Streptococcus pneumoniae; lowest concentration to fully inhibit visible growth (OD600); clinical isolate; read-out: in vitro susceptibility (MIC) S. Pneumonia
Protocol: as §1, §2, §3, §4, §5, §6, §7

[4] = test system: E. faecalis cells; assay: MIC in vitro broth micro-dilution assay, E. faecalis; type: cell-based, Enterococcus faecalis; conditions: Enterococcus faecalis; lowest concentration to fully inhibit visible growth (OD600); clinical isolate; read-out: in vitro susceptibility (MIC) E. Faecalis
Protocol: as §1, §2, §3, §4, §5, §6, §7

[5] = test system: vancomycin-resistant enterococci (VRE) cells, VRE 1; assay: MIC in vitro broth micro-dilution assay, VRE 1; type: cell-based; conditions: Enterococcus, VRE; lowest concentration to fully inhibit visible growth (OD600); clinical isolate, ampicillin, ciprofloxacin and vancomycin resistant; read-out: in vitro susceptibility (MIC) VRE 1
Protocol: as §1, §2, §3, §4, §5, §6, §7

[6] = lowest concentration to fully inhibit visible growth (OD600), ATCC strain, read-out: in vitro susceptibility (MIC) MRSA USA3000

Structure (SMILES)	MIC [1]	MIC [2, 6]	MIC ([2]; read-out: MIC value, MRSA USA300 cells)	MIC [3]	MIC [4]	MIC [5]	in vitro susceptibility (MIC) MRSA USA3000 ([2]; lowest concentration to fully inhibit visible growth (OD600), ATCC strain, listed as drawing 80)
C=C[C@]1(C)C[C@@H](OC(=O)Cn2cc(-c3ccc(CN4C(=O)c5ccccc5C4=O)cc3)nn2)[C@]2(C)[C@H](C)CC[C@]3(CCC(=O)[C@H]32)[C@@H](C)[C@@H]1O [C2, 22-[4-(4-((N-phthalimide)methyl)phenyl)-1H-1,2,3-triazol-1-yl]-22-deoxypleuromutilin]	> 8 µg/mL	0.25 µg/mL (≈ 0.376 µM)	–	4 µg/mL (≈ 6.02 µM)	8 µg/mL (≈ 12 µM)	> 8 µg/mL	–
C=C[C@]1(C)C[C@@H](OC(=O)Cn2cc(-c3ccc(CO)cc3)nn2)[C@]2(C)[C@H](C)CC[C@]3(CCC(=O)[C@H]32)[C@@H](C)[C@@H]1O [C4, 22-[4-(4-(hydroxymethyl)phenyl)-1H-1,2,3-triazol-1-yl]-22-deoxypleuromutilin]	1 µg/mL (≈ 1.87 µM)	0.25 µg/mL (≈ 0.467 µM)	–	4 µg/mL (≈ 7.47 µM)	2 µg/mL (≈ 3.73 µM)	1 µg/mL (≈ 1.87 µM)	–
C=C[C@]1(C)C[C@@H](OC(=O)Cn2cc(-c3ccc(Cn4cnc5c(N)ncnc54)c(OC)c3)nn2)[C@]2(C)[C@H](C)CC[C@]3(CCC(=O)[C@H]32)[C@@H](C)[C@@H]1O [C8, 22-[4-(4-((6-Amino-9H-purin-9-yl)methyl)-3-methoxyphenyl)-1H-1,2,3-triazol-1-yl]-22-deoxypleuromutilin]	0.12 µg/mL (≈ 0.176 µM)	0.06 µg/mL (≈ 0.0879 µM)	–	0.25 µg/mL (≈ 0.366 µM)	0.25 µg/mL (≈ 0.366 µM)	0.12 µg/mL (≈ 0.176 µM)	–
C=C[C@]1(C)C[C@@H](OC(=O)Cn2cc(-c3ccc(Cn4cnc5c(N6CCNCC6)ncnc54)nc3)nn2)[C@]2(C)[C@H](C)CC[C@]3(CCC(=O)[C@H]32)[C@@H](C)[C@@H]1O [C10, 22-[4-(6-((6-(piperazin-1-yl)-9H-purin-9-yl)methyl)pyridin-3-yl)-1H-1,2,3-triazol-1-yl]-22-deoxypleuromutilin]	0.12 µg/mL (≈ 0.166 µM)	0.12 to 0.25 µg/mL (≈ 0.166 to 0.346 µM)	–	0.03 µg/mL (≈ 0.0415 µM)	0.03 µg/mL (≈ 0.0415 µM)	0.03 µg/mL (≈ 0.0415 µM)	–
C=C[C@]1(C)C[C@@H](OC(=O)Cn2cc(-c3ccc(Cn4cnc5c(N6CCNCC6)ncnc54)cc3)nn2)[C@]2(C)[C@H](C)CC[C@]3(CCC(=O)[C@H]32)[C@@H](C)[C@@H]1O [C11, 22-[4-(4-((6-(piperazin-1-yl)-9H-purin-9-yl)methyl)phenyl)-1H-1,2,3-triazol-1-yl]-22-deoxypleuromutilin]	0.12 µg/mL (≈ 0.166 µM)	0.25 µg/mL (≈ 0.346 µM)	–	0.12 µg/mL (≈ 0.166 µM)	0.12 µg/mL (≈ 0.166 µM)	0.06 µg/mL (≈ 0.0831 µM)	–
C=C[C@]1(C)C[C@@H](OC(=O)Cn2cc(-c3cccc(NC(=O)c4ccccc4)c3)nn2)[C@]2(C)[C@H](C)CC[C@]3(CCC(=O)[C@H]32)[C@@H](C)[C@@H]1O [C14, 22-[4-(3-benzamidophenyl)-1,2,3-triazole-1-yl]-22-deoxypleuromutilin]	–	0.5 µg/mL (≈ 0.8 µM)	–	–	–	–	–
C=C[C@]1(C)C[C@@H](OC(=O)Cn2cc(-c3cccc(Oc4ncnc5[nH]cnc45)c3)nn2)[C@]2(C)[C@H](C)CC[C@]3(CCC(=O)[C@H]32)[C@@H](C)[C@@H]1O [C16, 22-[4-(3-((9H-purin-6-yl)oxy)phenyl)-1,2,3-triazole-1-yl]-22-deoxypleuromutilin]	–	0.12 µg/mL (≈ 0.188 µM)	–	–	–	–	–
C=C[C@]1(C)C[C@@H](OC(=O)Cn2cc(-c3cccc(Oc4nc(N)nc5[nH]cnc45)c3)nn2)[C@]2(C)[C@H](C)CC[C@]3(CCC(=O)[C@H]32)[C@@H](C)[C@@H]1O [C17, 22-[4-(3-((2-amino-9H-purin-6-yl)oxy)phenyl)-1,2,3-triazole-1-yl]-22-deoxypleuromutilin]	–	0.12 µg/mL (≈ 0.183 µM)	–	–	–	–	–
C=C[C@]1(C)C[C@@H](OC(=O)CSC2CC[C@@H](N)C[C@H]2O)[C@]2(C)[C@H](C)CC[C@]3(CCC(=O)[C@H]32)[C@@H](C)[C@@H]1O.CC(=O)O (some centres unmarked) [Lefamulin.Ac, reference compound]	0.12 µg/mL	–	–	0.12 µg/mL	0.06 µg/mL	0.12 µg/mL	–
C=C[C@]1(C)C[C@@H](CC(=O)Cn2cc(-c3cccc(-n4cnc5c(N)ncnc54)c3)nn2)[C@]2(C)[C@H](C)CC[C@]3(CCC(=O)[C@H]32)[C@@H](C)[C@@H]1O [prior art compound 7, reference compound]	–	0.06 µg/mL (≈ 0.0942 µM)	–	–	–	–	–
C=C[C@]1(C)C[C@@H](CC(=O)Cn2cc(-c3ccc(-n4cnc5c(N)ncnc54)cc3)nn2)[C@]2(C)[C@H](C)CC[C@]3(CCC(=O)[C@H]32)[C@@H](C)[C@@H]1O [prior art compound 8, reference compound]	–	0.5 µg/mL (≈ 0.785 µM)	–	–	–	–	–

More lines, now with the values ahead:

MIC [1]	MIC [2, 6]	MIC ([2]; read-out: MIC value, MRSA USA300 cells)	MIC [3]	MIC [4]	MIC [5]	in vitro susceptibility (MIC) MRSA USA3000 ([2]; lowest concentration to fully inhibit visible growth (OD600), ATCC strain, listed as drawing 80)	Structure (SMILES)
0.25 µg/mL (≈ 0.383 µM)	0.03 µg/mL (≈ 0.046 µM)	0.03 µg/mL (≈ 0.046 µM)	0.05 µg/mL (≈ 0.0766 µM)	0.25 µg/mL (≈ 0.383 µM)	0.25 µg/mL (≈ 0.383 µM)	–	C=C[C@]1(C)C[C@@H](OC(=O)Cn2cc(-c3ccc(Cn4cnc5c(N)ncnc54)cc3)nn2)[C@]2(C)[C@H](C)CC[C@]3(CCC(=O)[C@H]32)[C@@H](C)[C@@H]1O [C1]
–	0.06 µg/mL (≈ 0.0894 µM)	–	–	–	–	–	C=C[C@]1(C)C[C@@H](OC(=O)Cn2cc(-c3ccc(Cn4cnc5c(N)nc(F)nc54)cc3)nn2)[C@]2(C)[C@H](C)CC[C@]3(CCC(=O)[C@H]32)[C@@H](C)[C@@H]1O [C5, 22-[4-(4-((6-Amino-2-fluoro-9H-purin-9-yl)methyl)phenyl)-1H-1,2,3-triazol-1-yl]-22-deoxypleuromutilin]
0.25 µg/mL (≈ 0.374 µM)	0.06 µg/mL (≈ 0.0898 µM)	–	0.25 µg/mL (≈ 0.374 µM)	0.25 µg/mL (≈ 0.374 µM)	0.25 µg/mL (≈ 0.374 µM)	–	C=C[C@]1(C)C[C@@H](OC(=O)Cn2cc(-c3ccc(Cn4cnc5c(N)nc(N)nc54)cc3)nn2)[C@]2(C)[C@H](C)CC[C@]3(CCC(=O)[C@H]32)[C@@H](C)[C@@H]1O [C6, 22-[4-(4-((2,6-Diamino-9H-purin-9-yl)methyl)phenyl)-1H-1,2,3-triazol-1-yl]-22-deoxypleuromutilin]
0.12 µg/mL (≈ 0.184 µM)	–	–	0.25 µg/mL (≈ 0.382 µM)	0.25 µg/mL (≈ 0.382 µM)	0.12 µg/mL (≈ 0.184 µM)	0.03 µg/mL	C=C[C@]1(C)C[C@@H](OC(=O)Cn2cc(-c3ccc(Cn4cnc5c(N)ncnc54)nc3)nn2)[C@]2(C)[C@H](C)CC[C@]3(CCC(=O)[C@H]32)[C@@H](C)[C@@H]1O [C7, 22-[4-(6-((6-Amino-9H-purin-9-yl)methyl)pyridin-3-yl)-1H-1,2,3-triazol-1-yl]-22-deoxypleuromutilin]
0.25 µg/mL (≈ 0.374 µM)	0.03 µg/mL (≈ 0.0449 µM)	–	0.25 µg/mL (≈ 0.374 µM)	0.25 µg/mL (≈ 0.374 µM)	0.25 µg/mL (≈ 0.374 µM)	–	C=C[C@]1(C)C[C@@H](OC(=O)Cn2cc(-c3ccc(Cn4cnc5c(N)ncnc54)c(O)c3)nn2)[C@]2(C)[C@H](C)CC[C@]3(CCC(=O)[C@H]32)[C@@H](C)[C@@H]1O [C9, 22-[4-(4-((6-amino-9H-purin-9-yl)methyl)-3-hydroxyphenyl)-1H-1,2,3-triazol-1-yl]-22-deoxypleuromutilin]
